# Results reported in ChEMBL document CHEMBL1165994, “Leucoridines A-D, cytotoxic Strychnos-Strychnos bisindole alkaloids from Leuconotis” (J Nat Prod, 2010).
# Tested on: not listed separately
# Experiment: Cytotoxicity against human KB/VJ300 cells after 3 days by MTT assay
# Assay type: functional, cell-based
# Settings: KB/VJ300, 72 h
row,Compound,IC50 [mg/L]
1,CC[C@@H]1CN2CC[C@@]34C5=C(C[C@]6(CN5c5ccccc53)C3=Nc5ccccc5[C@@]35CCN3C[C@@H](CC)[C@@H]6C[C@H]35)[C@H]1C[C@H]24 [LEUCORIDINE A],2.39
2,CCC1=CN2CC[C@@]34C(=Nc5ccccc53)[C@@]3(CC5=C6N(C3)c3ccccc3[C@@]63CCN6C[C@@H](CC)[C@@H]5C[C@H]63)[C@H]1C[C@H]24 [LEUCORIDINE B],12
3,C=C1[C@H]2C[C@@H]3N(CC[C@@]34c3cccc(C[C@@H]5C6=Nc7ccccc7[C@@]67CCN6C[C@@H](CC)[C@@H]5C[C@H]67)c3N[C@@H]14)C[C@H]2CC [LEUCORIDINE D],13.3
4,CC[C@@H]1CN2CC[C@@]34C5=C(C[C@]6(CN5c5ccccc53)C(=O)[C@@]3(c5ccccc5N)CCN5C[C@@H](CC)[C@@H]6C[C@H]53)[C@H]1C[C@H]24 [LEUCORIDINE C],11.8

# Tested on: KB
# Experiment: Cytotoxicity against human KB cells after 3 days by MTT assay
# Assay type: functional, cell-based
# Settings: 72 h
row,Compound,IC50 [mg/L]
1,CC[C@@H]1CN2CC[C@@]34C5=C(C[C@]6(CN5c5ccccc53)C3=Nc5ccccc5[C@@]35CCN3C[C@@H](CC)[C@@H]6C[C@H]35)[C@H]1C[C@H]24 [LEUCORIDINE A],0.57
2,CCC1=CN2CC[C@@]34C(=Nc5ccccc53)[C@@]3(CC5=C6N(C3)c3ccccc3[C@@]63CCN6C[C@@H](CC)[C@@H]5C[C@H]63)[C@H]1C[C@H]24 [LEUCORIDINE B],11.6
3,C=C1[C@H]2C[C@@H]3N(CC[C@@]34c3cccc(C[C@@H]5C6=Nc7ccccc7[C@@]67CCN6C[C@@H](CC)[C@@H]5C[C@H]67)c3N[C@@H]14)C[C@H]2CC [LEUCORIDINE D],12.5
4,CC[C@@H]1CN2CC[C@@]34C5=C(C[C@]6(CN5c5ccccc53)C(=O)[C@@]3(c5ccccc5N)CCN5C[C@@H](CC)[C@@H]6C[C@H]53)[C@H]1C[C@H]24 [LEUCORIDINE C],10.9
